Assay results reported in US20160215111A1, “MATERIALS AND METHODS” (THE UNIVERSITY OF SYDNEY, priority 2013, published 2016).

Assays:
Human dermal fibroblasts [1] = test: Cell attachment of human dermal fibroblasts to peptide coated polymer samples (crystal violet); format: cell-based; details: for % cell attachment / maximal % cell attachment: BSA blocked; for cell binding activity after dry autoclaving / cell binding activity after heating: coated at pH 10, 0 mM NaCl; for cell binding activity after dry autoclaving: 120° C., 20 min (FIG. 10); for maximal % cell attachment: coating concentration 50 μM
Procedure: PFTE and polystyrene were obtained from Goodfellow. PEEK was sourced from Vitrex. […] Human dermal fibroblasts were cultured in a humidified 5% CO2 atmosphere in DMEM (Invitrogen) supplemented with 10% (v/v) fetal calf serum (Invitrogen), and passaged 1 in 10 every 3-4 days. Unless stated otherwise all other reagents were purchased from Sigma.
Where stated samples were incubated in 2% Tween-20 for 10 min at 70° C. then washed with PBS. Where stated non-specific cell binding was prevented with incubation in 10 mg/ml heat denatured (80° C./10 min) BSA for 1 hour at room temperature. Confluent 75 cm^2 flasks of cells were harvested by trypsinization, and the cell density adjusted to 5×10^5 cells/ml in serum free DMEM. The cells were added to the samples for 60 min at 37° C., 5% CO2 then non-adherent cells were removed with 2×1 PBS washes. Adherent cells were fixed with the addition of 5% glutaraldehyde (w/v) in PBS for 20 min. The samples were washed 3×PBS, and then the cells were stained with 0.1% (w/v) crystal violet in 0.2M MES pH 5.0 for 1 h at room temperature. After washing extensively with dH2O the samples were transferred to fresh tissue culture plates and the crystal violet was solubilised in 10% (v/v) acetic acid. The absorbance was measured at 570 nm using a plate reader. The absorbance was converted to % cell attachment using the equation of a linear regression fit of standard known cell number controls.
Samples were peptide coated as for cell attachment analysis then washed 3× with PBS. […] The samples were then autoclaved at 120° C., 100 kPa above atmospheric pressure with steam for 20 min. For slow cooled samples the temperature of the autoclave returned to room temperature over a period of 4 hours. The other samples were removed once the autoclave reached 70° C. and were immediately immersed in room temperature PBS. All samples were washed 3× with PBS prior to measuring cell attachment.

Human dermal fibroblasts [2] = test: Cell morphology / spreading and patterned cell distribution by phase contrast microscopy; format: cell-based
Procedure: PFTE and polystyrene were obtained from Goodfellow. PEEK was sourced from Vitrex. Peptide 36 ([…]) and peptide 36 short ([…]) were synthesized by Auspep. Recombinant human tropoelastin corresponding to amino acid residues 27-724 of GenBank entry AAC98394 (gi 182020) was expressed and purified as previously described. Human dermal fibroblasts were cultured in a humidified 5% CO2 atmosphere in DMEM (Invitrogen) supplemented with 10% (v/v) fetal calf serum (Invitrogen), and passaged 1 in 10 every 3-4 days. Unless stated otherwise all other reagents were purchased from Sigma.
Samples were contact or shadow masked during PIII treatment by layering 3 mm wide low contact ADH kapton tape (contact mask) (Associated Gaskets, Australia) or a 130 μm stainless steel plate (shadow mask) (Mastercut Technologies, Australia) over the sample during PIII treatment. The masks were removed immediately after treatment.
Samples were peptide 36 coated, BSA blocked and cell seeded as for cell attachment. After incubation for 90 min the cells were fixed with the addition of 37% (w/v) formaldehyde directly to the cell media to achieve a final concentration of 3% (w/v) for 20 min. For opaque samples the cells were crystal violet stained as for cell attachment. The cell morphology was then observed by phase contrast microscopy.

[3] = tested on: rabbit polyclonal antibody with specificity against the C-terminal RKRK motif of tropoelastin; test: C-terminal ELISA detection of RKRK exposure; format: binding; details: for C-terminal ELISA detection: tissue culture plastic, increasing coating concentration (FIG. 13)
Source text: Rabbit polyclonal antibodies against exon 36 were raised by Biomatik. A peptide corresponding to exon 36 ([…]) conjugated to Keyhole Limpet Hemocyanin was used to immunize New Zealand rabbits. Exon 36 specific antibodies were purified from the resulting immune serum by affinity chromatography using the immunogen peptide. […] Therefore this protocol produced a rabbit polyclonal antibody with specificity against the C-terminal RKRK motif of tropoelastin.
Untreated or PIII treated polystyrene was incubated in peptide 36 containing buffer (10 mM PO4, 150 mM NaCl) of increasing pH for 1 hour at room temperature. After peptide immobilization the samples were washed 3× with PBS to remove non-bound peptide. Background antibody binding was blocked with 3% (w/v) BSA for 1 hour at room temperature. The primary rabbit-anti-C-terminal antibody was diluted to 1:5000 and added to the samples for 1 hour at room temperature. Non-bound antibody was removed with 3×PBS washes then detected with 1:10,000 diluted goat anti-rabbit whole IgG-HRP conjugated secondary antibody for 1 hour at room temperature. The secondary antibody was removed, the samples washed 3×PBS washes and then transferred to fresh tissue culture plates. ABTS solution (40 mM ABTS, 0.1 mM NaOAc, 0.05M NaH2PO4, 0.01% H2O2, pH 5) was added for 30 min and the absorbance read at 405 nm.

[4] = PIII treated polystyrene (FIG. 3A, B)
[5] = post PIII allylamine vapor treated PTFE (30 min exposure), versus PIII treated PTFE (FIG. 6B)
[6] = untreated polystyrene (FIG. 3A, B)
[7] = tape or shadow masked PIII treated polymer (polystyrene, PTFE; FIG. 4)
[8] = untreated polystyrene (FIG. 3C)

Sequence: ACLGKACG [ΔRKRK peptide 36, peptide 36 where the RKRK motif was deleted]
- cell binding activity (Human dermal fibroblasts [1]; PIII treated PTFE (FIG. 6B)): low levels of cell binding activity
- cell attachment (Human dermal fibroblasts [1]; [4]): did not support cell binding
- cell binding activity (Human dermal fibroblasts [1]; [5]): low levels of cell binding activity
- cell binding activity (Human dermal fibroblasts [1]; untreated PTFE (FIG. 6B)): low levels of cell binding activity
- cell attachment (Human dermal fibroblasts [1]; [6]): did not support cell binding
- cell spreading (Human dermal fibroblasts [2]; PIII treated polystyrene (FIG. 3C)): did not elicit cell spreading
- patterned cell distribution (Human dermal fibroblasts [2]; [7]): absence of cell attachment and spreading
- cell spreading (Human dermal fibroblasts [2]; [8]): did not elicit cell spreading
- C-terminal ELISA detection [3]: not capable of detecting

Sequence: ACLGKACGRKRK [peptide 36]
- % cell attachment (Human dermal fibroblasts [1]; 800 second PIII treated PTFE): 4.3±1.8%
- cell binding activity (Human dermal fibroblasts [1]; PIII treated PTFE (FIG. 6B)): low levels
- cell binding activity (Human dermal fibroblasts [1]; PIII treated PTFE and PEEK, pH 6 association buffer (FIG. 7C, D)): low levels of cell binding activity
- cell binding activity (Human dermal fibroblasts [1]; PIII treated PTFE and PEEK, pH 10 association buffer (FIG. 7C, D)): high levels of cell binding activity
- cell binding activity after dry autoclaving (Human dermal fibroblasts [1]; PIII treated PTFE): not cell adhesive
- cell binding activity after heating (Human dermal fibroblasts [1]; PIII treated PTFE, incubations of 70° C. and above (FIG. 9)): baseline levels of cell binding
- cell binding activity after liquid autoclaving (Human dermal fibroblasts [1]; PIII treated PTFE, pH 6, 150 mM NaCl autoclave liquid (FIG. 10A)): reduced to background levels
- cell binding activity after liquid autoclaving (Human dermal fibroblasts [1]; PIII treated PTFE, pH 10, 0 mM NaCl autoclave liquid, gradual cooling to room temperature (FIG. 10C)): comparable peptide 36-cell binding activity to the no-autoclave control
- cell binding activity after liquid autoclaving (Human dermal fibroblasts [1]; PIII treated PTFE, pH 10, 0 mM NaCl autoclave liquid, rapid cooling (FIG. 10B)): partial peptide 36-cell binding activity was retained
- cell attachment (Human dermal fibroblasts [1]; [4]): not cell adhesive
- cell binding activity (Human dermal fibroblasts [1]; PIII treated polystyrene, association buffer pH 10, 150 mM NaCl (FIG. 7B)): maximal cell binding activity
- cell binding activity (Human dermal fibroblasts [1]; PIII treated polystyrene, association buffers of up to pH 8, 150 mM NaCl (FIG. 7B)): low levels of cell biding activity
- maximal % cell attachment (Human dermal fibroblasts [1]; PIII treated polystyrene): 5.1±0.5%
- cell binding activity (Human dermal fibroblasts [1]; PIII treated surface, 150 mM NaCl association buffer, pH 7.4 (FIG. 7A)): background levels of binding
- cell binding activity (Human dermal fibroblasts [1]; PIII treated surface, low ionic strength association buffer, pH 7.4 (FIG. 7A)): high levels of peptide 36-cell binding activity
- peptide dependent cell attachment (Human dermal fibroblasts [1]; PTFE, 160 seconds of N2 plasma treatment): background levels
- % cell attachment (Human dermal fibroblasts [1]; PTFE, N2 plasma treatments up to 20 seconds before coating): 99.3-106.9%
- cell binding activity (Human dermal fibroblasts [1]; [5]): far greater levels of cell binding activity
- cell binding activity (Human dermal fibroblasts [1]; untreated PTFE (FIG. 6B)): high levels of cell binding
- cell binding activity after dry autoclaving (Human dermal fibroblasts [1]; untreated PTFE): retained
- cell binding activity after heating (Human dermal fibroblasts [1]; untreated PTFE, heated above 40° C. (FIG. 9)): not altered
- cell binding activity after liquid autoclaving (Human dermal fibroblasts [1]; untreated PTFE, regardless of the liquid buffer conditions (FIG. 10)): lost
- cell binding activity after heating (Human dermal fibroblasts [1]; untreated and PIII treated PTFE, heated 10 min up to 40° C. in pH 7.4, 150 mM NaCl (FIG. 9)): remained cell adhesive
- cell binding activity without autoclaving (Human dermal fibroblasts [1]; untreated and PIII treated PTFE, coated in pH 10, 0 mM NaCl buffer (FIG. 10)): cell adhesive on both untreated and PIII treated PTFE
- cell attachment (Human dermal fibroblasts [1]; [6]): high levels of cell adhesion
- cell attachment after Tween-20 washing (Human dermal fibroblasts [1]; untreated polystyrene, Tween-20 washed): background levels
- cell binding activity (Human dermal fibroblasts [1]; untreated polystyrene, 50 μM peptide, 10 mM PO4 pH 7.4, independent of NaCl content of association buffer (FIG. 7A)): high levels of cell-binding activity
- maximal % cell attachment (Human dermal fibroblasts [1]; untreated polystyrene): 98.6±12.5%
- cell binding activity (Human dermal fibroblasts [1]; untreated polystyrene, insensitive to pH of association buffer, 150 mM NaCl (FIG. 7B)): high levels of cell binding activity
- patterned cell distribution (Human dermal fibroblasts [2]; tape masked PIII treated PTFE, association buffer pH 7.4, 150 mM NaCl (FIG. 11)): retained selectively by peptide 36 on the untreated regions
- patterned cell distribution (Human dermal fibroblasts [2]; tape masked PIII treated PTFE, association buffer pH 10, 0 mM NaCl (FIG. 11)): cell binding on both the untreated and PIII treated sections
- patterned cell distribution (Human dermal fibroblasts [2]; tape masked PIII treated PTFE, washed with 2% Tween-20 or 5% SDS in pH 10, 0 mM NaCl at 70° C., gradual cooling (FIG. 11)): cell attachment exclusively in the PIII treated regions
- patterned cell distribution (Human dermal fibroblasts [2]; [7]): clearly restricted to the untreated regions
- cell spreading after Tween-20 washing (Human dermal fibroblasts [2]; untreated polymer, Tween-20 washed): removed peptide 36 dependent cell spreading activity
- cell spreading (Human dermal fibroblasts [2]; [8]): phase dark and flattened
- C-terminal ELISA detection of RKRK exposure ([3]; PIII treated polystyrene, association buffers with pH up to 8 (FIG. 8B)): low levels of peptide 36 RKRK exposure
- C-terminal ELISA detection of RKRK exposure ([3]; PIII treated polystyrene, coating concentrations up to 50 μM, 10 mM PO4, 150 mM NaCl, pH 7.4 (FIG. 8A)): little RKRK-dependent antibody detection
- C-terminal ELISA detection of RKRK exposure ([3]; PIII treated polystyrene, pH 10 association buffer, compared with untreated polystyrene (FIG. 8B)): not statistically different to those obtained on untreated polystyrene
- C-terminal ELISA detection [3]: detected
- C-terminal ELISA detection of RKRK exposure ([3]; untreated polystyrene, 50 μM peptide, association buffer of increasing pH (FIG. 8B)): detected peptide 36 across the entire range of pH
- C-terminal ELISA detection of RKRK exposure ([3]; untreated polystyrene, 10 mM PO4, 150 mM NaCl, pH 7.4, increase up to 10 μM coating, none further at 50 μM (FIG. 8A)): detected peptide 36 bound to the surface in a coating concentration dependent manner
